This test concerns glioma model mice. The test is described as follows: Therapy of glioma-bearing mice, survival. The conditions noted are these: doxorubicin 1 mg/Kg at 9d, 12d and 15d after tumor cell inoculation.

Procedure: An animal therapy experiment was conducted by the inventor to glioma-bearing mice (same mice as in Example 4). In the experiment, glioma model mice (same mice as in Example 4) were divided into two groups, 5 mice for each group. And then glioma model mice were treated with doxorubicin (1 mg/Kg) respectively after tumor cell inoculation for 9d, 12d and 15d.

In the case of `COc1cccc2c1C(=O)c1c(O)c3c(c(O)c1C2=O)C[C@@](O)(C(=O)CO)C[C@@H]3O[C@H]1C[C@H](N)[C@H](O)[C@H](C)O1` [Free-Dox, doxorubicin], the “Mean survival time / survival period” value was found to be 15 days.

Source of the values: US11707527B2, “Nanoscale drug carrier capable of passing through blood-brain barrier” (KUNSHAN XINYUNDA BIOTECH CO., LTD., priority 2017, dated 2023).
